From US4525589A, “Isoquinolinesulfonyl derivatives” (Asahi Kasei Kogyo Kabushiki Kaisha, priority 1981, dated 1985) come the findings set out here.

One experiment relates to mesenteric artery. The experiment can be described thus: Relaxation of mesenteric artery (helical strips contracted with KCl, organ bath). Conditions: Oryctolagus cuniculus, read-out: Relaxation of Mesenteric Artery ED50. Details: species or system rabbit (home bred, Japanese species). On the procedure: After a home bred rabbit of a Japanese species weighing about 3 Kg was subjected to bloodletting, resulting in death and then to abdominal incision, the mesenteric artery was taken out, cut into helicoids of 2 mm×25 mm and suspended in a 20 ml organ bath filled with a Krebs-Henseleit solution into which a mixed gas of 95% by volume of O2 and 5% by volume of CO2 was introduced and one end of the artery was connected with an isometric transducer. When a load of 1.5 g was applied to the artery, the contraction and the relaxation of the artery were recorded as a weight on the transducer (a product of Nippon Koden K.K., Japan, "FD Pickup TB-912T"). The relaxation of the mesenteric artery was observed by adding the isoquinolinesulfonyl derivatives and their pharmaceutically acceptable acid addition salts of this invention to the mesenteric artery at the condition of about one half of the maximum contraction with KCl at a KCl concentration of 15~20 mM. When the complete relaxation of the mesenteric artery was designated 100%, the concentration of the isoquinolinesulfonyl derivatives and their pharmaceutically acceptable acid addition salts which brought about a relaxation of 50% is shown in Table 12.
As to `CC1CNCCN1S(=O)(=O)c1cccc2cnccc12` (stereo not shown) [Compound (38), 1-(5-isoquinolinesulfonyl)-2-methylpiperazine], the EC50 was 5 µM.

Staying with this experiment, now noted: Oryctolagus cuniculus; concentration for 50% relaxation; KCl 15~20 mM contraction; read-out: Relaxation of Mesenteric Artery ED50.
Turning to `NCCNS(=O)(=O)c1cccc2cnccc12` [Compound (1), N-(2-aminoethyl)-5-isoquinolinesulfonamide], the EC50 came to 5 µM.
As to `CNS(=O)(=O)c1cccc2cnccc12` [Compound (25), N-methyl-5-isoquinolinesulfonamide], the EC50 was 13 µM.
On the same count and under the same terms, for `CCNS(=O)(=O)c1cccc2cnccc12` [Compound (26), N-ethyl-5-isoquinolinesulfonamide] the value was 8.8 µM; for `CCCCNS(=O)(=O)c1cccc2cnccc12` [Compound (27), N-n-Butyl-5-isoquinolinesulfonamide], 21 µM; for `CC(C)CNS(=O)(=O)c1cccc2cnccc12` [Compound (28), N-isobutyl-5-isoquinolinesulfonamide], 19 µM.
`CN(C)S(=O)(=O)c1cccc2cnccc12` [Compound (29), N,N-dimethyl-5-isoquinolinesulfonamide]: the EC50 amounted to 13 µM.
Regarding `CCN(CC)S(=O)(=O)c1cccc2cnccc12` [Compound (30), N,N-diethyl-5-isoquinolinesulfonamide], the EC50 turned out to be 8.9 µM.
Turning to `CCCCN(CCCC)S(=O)(=O)c1cccc2cnccc12` [Compound (31), N,N-di-n-butyl-5-isoquinolinesulfonamide], the EC50 worked out at 28 µM.
As for `O=S(=O)(c1cccc2cnccc12)N1CCCCC1` [Compound (32), 1-(5-isoquinolinesulfonyl)piperidine], the EC50 is 16 µM.
Still for that read-out and setting: for `O=S(=O)(c1cccc2cnccc12)N1CCCC1` [Compound (33), 1-(5-isoquinolinesulfonyl)pyrrolidine] the value was 11 µM; for `O=S(=O)(c1cccc2cnccc12)N1CCOCC1` [Compound (34), 1-(5-isoquinolinesulfonyl)morpholine], 10 µM; for `O=S(=O)(c1cccc2cnccc12)N1CCNCC1` [Compound (35), 1-(5-isoquinolinesulfonyl)piperazine], 0.6 µM.
The same measure, in the same setting: for `CN1CCN(S(=O)(=O)c2cccc3cnccc23)CC1` [Compound (36), 1-(5-isoquinolinesulfonyl)-4-methylpiperazine] the value was 7.7 µM; for `CC1CN(S(=O)(=O)c2cccc3cnccc23)CCN1` (stereo not shown) [Compound (37), 1-(5-isoquinolinesulfonyl)-3-methylpiperazine], 4 µM.
On the same count and under the same terms, with `CC1CN(S(=O)(=O)c2cccc3cnccc23)CC(C)N1` (stereo not shown) [Compound (39), 1-(5-isoquinolinesulfonyl)-3,5-dimethylpiperazine] the figure was 9.5 µM.
In the case of `CC1CN(S(=O)(=O)c2cccc3cnccc23)C(C)CN1` (stereo not shown) [Compound (40), 1-(5-isoquinolinesulfonyl)-2,5-dimethylpiperazine], the EC50 amounted to 0.6 µM.
For `CC1NCCN(S(=O)(=O)c2cccc3cnccc23)C1C` (stereo not shown) [Compound (41), 1-(5-isoquinolinesulfonyl)-2,3-dimethylpiperazine], the EC50 amounted to 1.5 µM.
The same measure, in the same setting: for `CCN1CCN(S(=O)(=O)c2cccc3cnccc23)CC1` [Compound (42), 1-(5-isoquinolinesulfonyl)-4-ethylpiperazine] the value was 18 µM.
Consider `CCC1CN(S(=O)(=O)c2cccc3cnccc23)CCN1` (stereo not shown) [Compound (43), 1-(5-isoquinolinesulfonyl)-3-ethylpiperazine], for which the EC50 worked out at 6.1 µM.
The same measure, in the same setting: with `CCCN1CCN(S(=O)(=O)c2cccc3cnccc23)CC1` [Compound (44), 1-(5-isoquinolinesulfonyl)-4-n-propylpiperazine] the figure was 8.6 µM; with `CC(C)C1CN(S(=O)(=O)c2cccc3cnccc23)CCN1` (stereo not shown) [Compound (45), 1-(5-isoquinolinesulfonyl)-3-isopropylpiperazine], 7.5 µM; with `CC(C)CC1CN(S(=O)(=O)c2cccc3cnccc23)CCN1` (stereo not shown) [Compound (46), 1-(5-isoquinolinesulfonyl)-3-isobutylpiperazine], 6.5 µM.
For `CC(C)CN1CCN(S(=O)(=O)c2cccc3cnccc23)CC1` [Compound (47), 1-(5-isoquinolinesulfonyl)-4-isobutylpiperazine], the EC50 worked out at 24 µM.
Same read-out and setting: for `CCC1CN(S(=O)(=O)c2cccc3cnccc23)C(CC)CN1` (stereo not shown) [Compound (48), 1-(5-isoquinolinesulfonyl)-2,5-diethylpiperazine] the value was 1.8 µM.
Regarding `CC(C)CC1CN(S(=O)(=O)c2cccc3cnccc23)C(C)CN1` (stereo not shown) [Compound (49), 1-(5-isoquinolinesulfonyl)-2-methyl-5-isobutylpiperazine], the EC50 was 10 µM.
The same measure, in the same setting: with `CC1CNC(Cc2ccccc2)CN1S(=O)(=O)c1cccc2cnccc12` (stereo not shown) [Compound (50), 1-(5-isoquinolinesulfonyl)-2-methyl-5-benzylpiperazine] the figure was 16 µM; with `CCCCCCN1CCN(S(=O)(=O)c2cccc3cnccc23)CC1` [Compound (51), 1-(5-isoquinolinesulfonyl)-4-hexylpiperazine], 19 µM; with `O=S(=O)(c1cccc2cnccc12)N1CCNC(c2ccccc2)C1` (stereo not shown) [Compound (53), 1-(5-isoquinolinesulfonyl)-3-phenylpiperazine], 7 µM.
Consider `O=S(=O)(c1cccc2cnccc12)N1CCNC(Cc2ccccc2)C1` (stereo not shown) [Compound (54), 1-(5-isoquinolinesulfonyl)-3-benzylpiperazine], for which the EC50 was 11 µM.
On the same count and under the same terms, for `O=S(=O)(c1cccc2cnccc12)N1CCN(c2ccccc2)CC1` [Compound (55), 1-(5-isoquinolinesulfonyl)-4-phenylpiperazine] the value was 9 µM; for `O=S(=O)(c1cccc2cnccc12)N1CCN(Cc2ccccc2)CC1` [Compound (56), 1-(5-isoquinolinesulfonyl)-4-benzylpiperazine], 23 µM.
Still for that read-out and setting: with `O=S(=O)(c1cccc2cnccc12)N1CCN(CCc2ccccc2)CC1` [Compound (57), 1-(5-isoquinolinesulfonyl)-4-phenethylpiperazine] the figure was 12 µM; with `O=C(c1ccccc1)N1CCN(S(=O)(=O)c2cccc3cnccc23)CC1` [Compound (58), 1-(5-isoquinolinesulfonyl)-4-benzoylpiperazine], 40 µM; with `O=S(=O)(c1cccc2cnccc12)N1CCN(CC=Cc2ccccc2)CC1` [Compound (59), 1-(5-isoquinolinesulfonyl)-4-cinnamylpiperazine], 6.8 µM.
Still for that read-out and setting: for `O=C(C=Cc1ccccc1)N1CCN(S(=O)(=O)c2cccc3cnccc23)CC1` [Compound (60), 1-(5-isoquinolinesulfonyl)-4-cinnamoylpiperazine] the value was 27 µM; for `O=C(c1ccco1)N1CCN(S(=O)(=O)c2cccc3cnccc23)CC1` [Compound (61), 1-(5-isoquinolinesulfonyl)-4-furoylpiperazine], 24 µM.
Turning to `CCOC(CN1CCN(S(=O)(=O)c2cccc3cnccc23)CC1)c1ccccc1` (stereo not shown) [Compound (63), 1-(5-isoquinolinesulfonyl)-4-(2-ethoxy-2-phenylethyl)piperazine], the EC50 stood at 13 µM.
For the molecule `CN(CCNS(=O)(=O)c1cccc2cnccc12)Cc1ccccc1` [Compound (65), N-[2-(N-methyl-N-benzylamino)ethyl]-5-isoquinolinesulfonamide], the EC50 worked out at 13 µM.
As to `CC(C)N(CCNS(=O)(=O)c1cccc2cnccc12)Cc1ccccc1` [Compound (67), N-[2-(N-isopropyl-N-benzylamino)ethyl]-5-isoquinolinesulfonamide], the EC50 was 18 µM.

A further experiment concerns femoral artery. Kind of experiment: Effect on blood flow volume of femoral artery of dog. In kind it is in vivo, dog of mixed breed. Conditions: 1 mg/Kg intravenous; anesthetized dog. Here is the method: (§1) The effect of the isoquinolinesulfonyl derivatives and the pharmaceutically acceptable acid addition salts of this invention on the vasodilatation of the femoral and vertebral arteries can be measured by anesthetizing a dog of mixed breed weighting 8 to 15 Kg by an intravenous administration of 35 mg/Kg of pentbarbital, providing an acute type probe (a product of Nippon Koden K.K., Japan) with the femoral and vertebral arteries, administering the isoquinolinesulfonyl derivatives and the pharmaceutically acceptable acid addition salts to the femoral vein through a polyethylene tube inserted into the femoral vein side chain and measuring the blood flow volume with an electromagnetic flowmeter (a product of Nippon Koden K.K., Japan, "MF-27"). Among the isoquinolinesulfonyl compounds of Formula (I) of this invention, those with l=0 and the [drawing 37] group show a high action for increasing blood flow and simultaneously a selectivity to vertebral arteries. For example, when 1 mg/Kg of 1-(5-isoquinolinesulfonyl)piperazine, i.e., Compound (35) was intravenously administered, the increased blood flow volumes in the vertebral artery and in the femoral artery were 98% and 65%, respectively. Also the isoquinolinesulfonyl compounds of Formula (I) of this invention with l=1 and one of the R2 and R3 groups=a hydrogen atom show a continuing blood flow increase. With 1 mg/Kg of N-(2-aminoethyl)-5-isoquinolinesulfonamide, i.e., Compound (1), an increase in the blood flow volume in the vertebral artery was continued for at least 30 minutes.
(§2) The effect on the vasodilatation of the femoral and vertebral arteries was measured by anesthetizing a dog of mixed breed weighing 8 to 15 Kg by an intravenous administration of 35 mg/Kg of pentabarbital, providing an acute type probe (a product of Nippon Koden K.K., Japan) with the femoral and vertebral arteries, administering the 5-isoquinolinesulfonyl derivatives and their pharmaceutically acceptable acid addition salts to the femoral vein through a polyethylene tube inserted into the femoral vein side chain and measuring the blood flow volume with an electromagnetic blood flowmeter (a product of Nippon Koden K.K., Japan, "MF-27").
With `O=S(=O)(c1cccc2cnccc12)N1CCNCC1` [Compound (35), 1-(5-isoquinolinesulfonyl)piperazine], the “Increased Blood Flow Volume in Femoral Artery” value is 65%.

The subject of a further experiment is vertebral artery. The experiment can be described thus: Effect on blood flow volume of vertebral artery of dog. The experiment is classed as in vivo, dog of mixed breed. The following applies: 1 mg/Kg intravenous; anesthetized dog. Here is the method:
as §1, §2
Consider `O=S(=O)(c1cccc2cnccc12)N1CCNCC1` [Compound (35), 1-(5-isoquinolinesulfonyl)piperazine], for which the “Increased Blood Flow Volume in Vertebral Artery” value came out at 98%.

Staying with this experiment, now noted: 1 mg/Kg intravenous; dog.
Regarding `NCCNS(=O)(=O)c1cccc2cnccc12` [Compound (1), N-(2-aminoethyl)-5-isoquinolinesulfonamide], the “Duration of increase in the blood flow volume in the vertebral artery” value is recorded as “at least 30 minutes”.
